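In this assay, cells in 96-well plates receive the compound at five concentrations for 48 hours. Endpoints are linearly interpolated between the surrounding concentrations. At the GI50, growth is halved.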 The source made the active and inactive calls. Rule as the data show it: active = GI50 up to about 1.1 µM and inactive = higher.
Key:
Test in all cases: DTP human tumour cell line panel, 48 h
HCT-15 = tested on: HCT-15
HL-60 = tested on: HL-60
Malme-3M = tested on: Malme-3M
K562 = tested on: K562
SW-620 = tested on: SW-620
U-251 = tested on: U-251
CCRF-CEM = tested on: CCRF-CEM
SN12C = tested on: SN12C
M14 = tested on: M14
NCI-H522 = tested on: NCI-H522
MCF7 = tested on: MCF7
Hs-578T = tested on: Hs-578T
UACC-62 = tested on: UACC-62
T47D = tested on: T47D
NCI-H226 = tested on: NCI-H226
NCI-H23 = tested on: NCI-H23
SF-268 = tested on: SF-268
SK-MEL-2 = tested on: SK-MEL-2
IGROV-1 = tested on: IGROV-1
OVCAR-5 = tested on: OVCAR-5
MDA-MB-435 = tested on: MDA-MB-435
786-0 = tested on: 786-0
NCI-H460 = tested on: NCI-H460
PC-3 = tested on: PC-3
EKVX = tested on: EKVX
ACHN = tested on: ACHN
MOLT-4 = tested on: MOLT-4
OVCAR-4 = tested on: OVCAR-4
SK-MEL-5 = tested on: SK-MEL-5
SNB-19 = tested on: SNB-19
RPMI-8226 = tested on: RPMI-8226
KM12 = tested on: KM12
OVCAR-8 = tested on: OVCAR-8
SR = tested on: SR
UO-31 = tested on: UO-31
RXF 393 = tested on: RXF 393
HT-29 = tested on: HT-29
TK-10 = tested on: TK-10
HCT-116 = tested on: HCT-116
OVCAR-3 = tested on: OVCAR-3
A549 = tested on: A549
SF-295 = tested on: SF-295
HOP-62 = tested on: HOP-62
MDA-MB-231 = tested on: MDA-MB-231
LOX IMVI = tested on: LOX IMVI
NCI/ADR-RES = tested on: NCI/ADR-RES
CAKI-1 = tested on: CAKI-1
UACC-257 = tested on: UACC-257
BT-549 = tested on: BT-549
MDA-N = tested on: MDA-N
HOP-92 = tested on: HOP-92
DU-145 = tested on: DU-145
SK-MEL-28 = tested on: SK-MEL-28
COLO 205 = tested on: COLO 205
A498 = tested on: A498
SNB-75 = tested on: SNB-75
SK-OV-3 = tested on: SK-OV-3
SF-539 = tested on: SF-539

C=C1C[C@@H](O)[C@@H](Br)C(C)(C)[C@@]12C=CC(O)(CBr)CC2 (stereo partly specified)
GI50 (HCT-15): > 100 µM | GI50 (HL-60): 35.4 µM (inactive) | GI50 (Malme-3M): > 100 µM (inactive) | GI50 (K562): 55.8 µM (inactive) | GI50 (SW-620): > 100 µM (inactive) | GI50 (U-251): 63.4 µM (inactive) | GI50 (CCRF-CEM): 28.1 µM (inactive) | GI50 (SN12C): > 100 µM (inactive) | GI50 (M14): > 100 µM (inactive) | GI50 (NCI-H522): 62.4 µM (inactive) | GI50 (MCF7): 59.6 µM (inactive) | GI50 (Hs-578T): 45.6 µM (inactive) | GI50 (UACC-62): 43.3 µM (inactive) | GI50 (T47D): > 100 µM (inactive) | GI50 (NCI-H226): > 100 µM (inactive) | GI50 (NCI-H23): 94 µM (inactive) | GI50 (SF-268): 50 µM (inactive) | GI50 (SK-MEL-2): 86.3 µM (inactive) | GI50 (IGROV-1): 89.3 µM (inactive) | GI50 (OVCAR-5): 13.7 µM (inactive) | GI50 (MDA-MB-435): 66.5 µM (inactive) | GI50 (786-0): > 100 µM (inactive) | GI50 (NCI-H460): 66.4 µM (inactive) | GI50 (PC-3): 1.48 µM (inactive) | GI50 (EKVX): 6.98 µM (inactive) | GI50 (ACHN): > 100 µM (inactive) | GI50 (MOLT-4): 21.4 µM (inactive) | GI50 (OVCAR-4): > 100 µM (inactive) | GI50 (SK-MEL-5): 76.7 µM (inactive) | GI50 (SNB-19): 88.9 µM (inactive) | GI50 (RPMI-8226): 24.9 µM (inactive) | GI50 (KM12): 1.6 µM (inactive) | GI50 (OVCAR-8): > 100 µM (inactive) | GI50 (SR): 14.8 µM (inactive) | GI50 (UO-31): > 100 µM (inactive) | GI50 (RXF 393): 43.3 µM (inactive) | GI50 (HT-29): 47.6 µM (inactive) | GI50 (TK-10): > 100 µM (inactive) | GI50 (HCT-116): > 100 µM (inactive) | GI50 (OVCAR-3): > 100 µM (inactive) | GI50 (A549): > 100 µM (inactive) | GI50 (SF-295): > 100 µM (inactive) | GI50 (HOP-62): > 100 µM (inactive) | GI50 (MDA-MB-231): 29 µM (inactive) | GI50 (LOX IMVI): 36.1 µM (inactive) | GI50 (NCI/ADR-RES): 0.0191 µM (active) | GI50 (CAKI-1): > 100 µM (inactive) | GI50 (UACC-257): > 100 µM (inactive) | GI50 (BT-549): 29.9 µM (inactive) | GI50 (MDA-N): > 100 µM (inactive) | GI50 (HOP-92): 13.6 µM (inactive) | GI50 (DU-145): > 100 µM (inactive) | GI50 (SK-MEL-28): > 100 µM (inactive)

CC(C)CC(NC=O)C(=O)NC(Cc1ccccc1)NC(=O)CNC(=O)C(C)NC(=O)OC(C)(C)C (stereo unspecified)
GI50 (HCT-15): > 100 µM | GI50 (HL-60): > 100 µM (inactive) | GI50 (Malme-3M): > 100 µM (inactive) | GI50 (K562): > 100 µM (inactive) | GI50 (SW-620): > 100 µM (inactive) | GI50 (U-251): > 100 µM (inactive) | GI50 (SN12C): > 100 µM (inactive) | GI50 (COLO 205): > 100 µM (inactive) | GI50 (M14): > 100 µM (inactive) | GI50 (NCI-H522): > 100 µM (inactive) | GI50 (MCF7): > 100 µM (inactive) | GI50 (Hs-578T): > 100 µM (inactive) | GI50 (UACC-62): > 100 µM (inactive) | GI50 (T47D): > 100 µM (inactive) | GI50 (NCI-H226): > 100 µM (inactive) | GI50 (NCI-H23): > 100 µM (inactive) | GI50 (SF-268): > 100 µM (inactive) | GI50 (IGROV-1): > 100 µM (inactive) | GI50 (A498): 21.9 µM (inactive) | GI50 (OVCAR-5): > 100 µM (inactive) | GI50 (MDA-MB-435): > 100 µM (inactive) | GI50 (786-0): > 100 µM (inactive) | GI50 (SNB-75): > 100 µM (inactive) | GI50 (NCI-H460): > 100 µM (inactive) | GI50 (SK-OV-3): > 100 µM (inactive) | GI50 (PC-3): > 100 µM (inactive) | GI50 (EKVX): > 100 µM (inactive) | GI50 (ACHN): > 100 µM (inactive) | GI50 (MOLT-4): > 100 µM (inactive) | GI50 (OVCAR-4): > 100 µM (inactive) | GI50 (SK-MEL-5): > 100 µM (inactive) | GI50 (SNB-19): > 100 µM (inactive) | GI50 (RPMI-8226): > 100 µM (inactive) | GI50 (KM12): > 100 µM (inactive) | GI50 (OVCAR-8): > 100 µM (inactive) | GI50 (SR): > 100 µM (inactive) | GI50 (UO-31): > 100 µM (inactive) | GI50 (RXF 393): > 100 µM (inactive) | GI50 (HT-29): > 100 µM (inactive) | GI50 (TK-10): > 100 µM (inactive) | GI50 (HCT-116): > 100 µM (inactive) | GI50 (OVCAR-3): > 100 µM (inactive) | GI50 (A549): > 100 µM (inactive) | GI50 (SF-295): > 100 µM (inactive) | GI50 (HOP-62): > 100 µM (inactive) | GI50 (MDA-MB-231): > 100 µM (inactive) | GI50 (LOX IMVI): > 100 µM (inactive) | GI50 (SF-539): > 100 µM (inactive) | GI50 (NCI/ADR-RES): > 100 µM (inactive) | GI50 (CAKI-1): > 100 µM (inactive) | GI50 (BT-549): > 100 µM (inactive) | GI50 (MDA-N): > 100 µM (inactive) | GI50 (HOP-92): > 100 µM (inactive) | GI50 (DU-145): > 100 µM (inactive) | GI50 (SK-MEL-28): > 100 µM (inactive)

CC(=O)Nc1ccc(/C=C/[N+](=O)[O-])cc1
GI50 (HCT-15): 2.33 µM | GI50 (HL-60): 2.84 µM (inactive) | GI50 (Malme-3M): 3.29 µM (inactive) | GI50 (K562): 2 µM (inactive) | GI50 (SW-620): 2.64 µM (inactive) | GI50 (U-251): 3.15 µM (inactive) | GI50 (CCRF-CEM): 2.33 µM (inactive) | GI50 (SN12C): 3.37 µM (inactive) | GI50 (COLO 205): 2.53 µM (inactive) | GI50 (M14): 2.59 µM (inactive) | GI50 (NCI-H522): 0.24 µM (active) | GI50 (MCF7): 2.79 µM (inactive) | GI50 (Hs-578T): 4.85 µM (inactive) | GI50 (UACC-62): 2 µM (inactive) | GI50 (T47D): 4.1 µM (inactive) | GI50 (NCI-H226): 1.67 µM (inactive) | GI50 (NCI-H23): 3.09 µM (inactive) | GI50 (SF-268): 4.67 µM (inactive) | GI50 (SK-MEL-2): 9.66 µM (inactive) | GI50 (IGROV-1): 2.37 µM (inactive) | GI50 (A498): 5.19 µM (inactive) | GI50 (OVCAR-5): 2.58 µM (inactive) | GI50 (MDA-MB-435): 2.82 µM (inactive) | GI50 (786-0): 2.61 µM (inactive) | GI50 (SNB-75): 1.5 µM (inactive) | GI50 (NCI-H460): 7.21 µM (inactive) | GI50 (SK-OV-3): 8.93 µM (inactive) | GI50 (PC-3): 5.71 µM (inactive) | GI50 (EKVX): 3.13 µM (inactive) | GI50 (ACHN): 3.42 µM (inactive) | GI50 (MOLT-4): 1.96 µM (inactive) | GI50 (OVCAR-4): 2.9 µM (inactive) | GI50 (SK-MEL-5): 2.36 µM (inactive) | GI50 (SNB-19): 7.19 µM (inactive) | GI50 (RPMI-8226): 1.66 µM (inactive) | GI50 (KM12): 5.68 µM (inactive) | GI50 (OVCAR-8): 6.07 µM (inactive) | GI50 (SR): 0.404 µM (active) | GI50 (UO-31): 2 µM (inactive) | GI50 (RXF 393): 2.07 µM (inactive) | GI50 (HT-29): 1.85 µM (inactive) | GI50 (TK-10): 1.75 µM (inactive) | GI50 (HCT-116): 2.42 µM (inactive) | GI50 (OVCAR-3): 2.98 µM (inactive) | GI50 (A549): 4.47 µM (inactive) | GI50 (SF-295): 5.71 µM (inactive) | GI50 (HOP-62): 7.96 µM (inactive) | GI50 (MDA-MB-231): 1.81 µM (inactive) | GI50 (LOX IMVI): 1.71 µM (inactive) | GI50 (SF-539): 2.37 µM (inactive) | GI50 (NCI/ADR-RES): 8.09 µM (inactive) | GI50 (CAKI-1): 0.573 µM (active) | GI50 (UACC-257): 5.21 µM (inactive) | GI50 (BT-549): 6.15 µM (inactive) | GI50 (MDA-N): 2.24 µM (inactive) | GI50 (HOP-92): 4.14 µM (inactive) | GI50 (DU-145): 5.11 µM (inactive) | GI50 (SK-MEL-28): 1.83 µM (inactive)
